This is an account of results in PMC7890253, “Signal Transduction Mechanisms for Glucagon-Induced Somatolactin Secretion and Gene Expression in Nile Tilapia (Oreochromis niloticus) Pituitary Cells” (Frontiers in Endocrinology, 2021).

Experiment [1] deals with tilapia NIL cells. Description: SL release in primary NIL cell culture (ELISA). The note with it: for SL release, dose dependence: mean ± SEM (N = 3). Type of experiment: cell-based, Nile tilapia (Oreochromis niloticus). The protocol: (§1) To examine the direct effects of GCG on SL release and gene expression in the pituitary, tilapia NIL cells were prepared by the controlled trypsin/DNase II digestion method as described previously ([30]). After that, NIL cells were seeded in poly-D-lysine precoated 24-well plates at ~1.5 × 10^6 cells/mL/well and incubated with test substances for the duration as indicated. After drug treatment, SL release in conditioned medium was immediately determined by the enzyme-linked immunosorbent assay (ELISA) with a detectable range from 0.5 to 500 ng/mL for SL. The assay was optimized in our laboratory by utilizing a polyclonal antibody against tilapia SL ([31]) and a SL-biotin conjugate (GenScript, Nanjing, China). Meanwhile, the cells were rinsed with cold PBS before being lysed by TRIzol reagent (Life Technologies) to measure SL gene expression. After cDNA synthesis, qPCR assays were performed using the primers specific for tilapia SL (forward primer: 5’ […] 3’ and reverse primer: 5’ […] 3’). The same qPCR conditions were maintained as described above, and gene expression levels were analyzed using the 2^−ΔΔCT method. In these experiments, β-actin was used as an internal control for normalizing genes of interest. It has been reported that β-actin is used to normalize SL gene expression in tilapia ([14]), goldfish ([32]), and red drum ([33]).
(§2) For qPCR and ELISA assays, NIL cells were prepared from 30–40 individual fish in each experimental run. For cAMP and IP3 measurements, NIL cells were prepared from ~30 individual fish in each experimental run. For Ca^2+ signal measurements, NIL cells were prepared from 10–12 individual fish. For the Western blot analysis, NIL cells were prepared from ~30 individual fish in each experimental run. Three biological replicates were analyzed, and four technical repeats were performed per sample. All results are expressed as the mean ± SEM (N = 3) and analyzed with ANOVA followed by post-hoc Bonferroni’s test for multiple comparisons. A value of P < 0.05 was regarded as statistically significant. All analyses were performed with GraphPad Prism Software, Inc (San Diego, CA).
(In an ELISA, binding on a coated surface is turned into a signal by an enzyme label.)

Experiment [2] deals with tilapia NIL cells. The experiment can be described thus: SL gene expression in primary NIL cell culture (qPCR). The format is cell-based, Nile tilapia (Oreochromis niloticus). The note with it: for effect on basal SL gene expression: 10 µM test substance. The protocol:
as §1, §2
A general note: Real-time PCR tracks product formation cycle by cycle.

Experiment [3] deals with rat hepatocytes. The note with it: ref Mine et al. ([59]); cited from earlier work. The text has this:
Although pituitary GCG-mediated molecular signaling pathways remain largely unknown, GCG action in fish hepatocytes is mediated by the AC/cAMP/PKA pathway ([52], [55]). These findings promote us to investigate similar signaling mechanisms involved in GCGb action in tilapia pituitary cells. […] In contrast, both basal and GCGb-induced SL release and gene expression ...

Experiment [4] deals with rat hepatocytes. The note with it: ref [57]; cited from earlier work.
In experiment [5] the test system is fish glucagon. Particulars: ref [18]; cited from earlier work. The protocol:
Male Nile tilapia (O. niloticus) with a bodyweight range of 45-55 g were purchased from local aquaria and maintained in aerated 300-liter aquaria at 28°C under 12 h dark/12 h light photoperiod. During tissue sampling, the fish were sacrificed by spinosectomy after anesthesia with 0.05% MS222 (Sigma, St Louis, MO) according to the procedures approved by the Animal Ethics Committee of Sichuan University. The tilapia and human GCGs and the des-His1-[Nle9-Ala11-Ala16] GCG antagonist were synthesized by GL Biochem (Shanghai, China).

The test system of experiment [6] is tilapia GCGRa. The experiment can be described thus: CRE-luciferase reporter assay, HEK293 cells stably expressing tilapia GCGRa. Type of experiment: cell-based, Nile tilapia (Oreochromis niloticus). The procedure: (§3) The open reading frames (ORFs) of tilapia Gcgra and Gcgrb were subcloned in the pcDNA3.1 (+) expression vector (Invitrogen) using high-fidelity Taq DNA polymerase (TOYOBO, Japan) and then HEK293 cell lines with stable expression of pcDNA3.1-GCGRa, and pcDNA3.1-GCGRb, respectively, were established in the presence of 500 µg/mL […] (Invitrogen). The expression of Gcgra and Gcgrb transcripts in these stably transfected cell lines was confirmed by qPCR, and the colonies with the same levels of Gcgra and Gcgrb mRNA expression were selected for subsequent studies. After that, HEK293 cells were co-transfected with the cAMP response element (CRE)-luciferase reporter plasmid, and Renilla luciferase plasmid (pTK-RL) (Promega, Madison, WI), encoding the Renilla luciferase protein, as the internal control using Lipofectamine in Opti-MEM (Invitrogen). […] The luciferase activity of cellular lysates was determined using a Dual-Glo luciferase assay kit (Promega), and the signal was read using a microplate reader (Fluostar OPTIMA, BMGLabtech). The luciferase activities in each treatment group were expressed as relative fold increase compared with the control group.
(§4) Figure 3 Functional characterization of tilapia GCGRa and GCGRb expressed in HEK293 cells. […] All results are expressed as the mean ± SEM (N = 3).
In general terms: In a reporter assay the amount or activity of a reporter protein is the signal.

Experiment [7] deals with tilapia GCGRb. Description: CRE-luciferase reporter assay, HEK293 cells stably expressing tilapia GCGRb. Type of experiment: cell-based, Nile tilapia (Oreochromis niloticus). The note with it: HEK293, CRE-luciferase (cAMP), 24 h treatment, 37°C, Luc ratio to Renilla, N = 3. The procedure: as §3, §4
For experiment [8], the system named is GCGRb. Particulars: ref [42]; cited from earlier work. The text has this: Identification of multiple types of Gcgrs raises a question of whether a given physiological response is mediated by either a specific receptor or multiple types of receptors. We examined the functional similarity and difference of the two tilapia GCGRs.
Where [9] appears, read: 10 µM test substance with GCGb 10 nM, 24 h.
The mark [10] stands for this setting: 5 µM test substance with GCGb 10 nM, 24 h.
The mark [11] stands for this setting: 1 µM test substance with GCGb 10 nM, 24 h.
Where [12] appears, read: 5 µM test substance with GCGb 10 nM (duration not given).
[13] abbreviates: 50 nM test substance with GCGb 10 nM (duration not given).

With `CN(C)CCCn1cc(C2=C(c3c[nH]c4ccccc34)C(=O)NC2=O)c2ccccc21` [GF109203X], the “effect on GCGb-stimulated SL release” value in experiment [1] (20 µM test substance with GCGb 10 nM, 24 h) is “neither compound was able to block GCGb stimulated SL release”.
Turning to `O=S(=O)(NCCNC/C=C/c1ccc(Br)cc1)c1cccc2cnccc12` [H89], the “effect on GCGb-stimulated SL mRNA expression” value in experiment [2] (setting [9]) is “blocked”. Moreover, in experiment [2] (24 h), the “effect on basal SL gene expression” value is reported as “blocked the basal levels”. Moreover, the “effect on GCGb-stimulated SL release” value in experiment [1] (setting [9]) is “blocked”. Also, the “effect on basal SL release” value in experiment [1] (10 µM test substance, 24 h) is listed as “blocked the basal levels”.
Consider `CN([C@@H](Cc1ccc(OS(=O)(=O)c2cccc3cnccc23)cc1)C(=O)N1CCN(c2ccccc2)CC1)S(=O)(=O)c1cccc2cnccc12` [KN62], for which, in experiment [2] (setting [10]), the “effect on GCGb-stimulated SL mRNA expression” value is reported as “abolished”. Besides, the “effect on GCGb-stimulated SL release” value in experiment [1] (setting [10]) is “abolished”.
For `Cl.c1ccc(C2CCCC2NC2=NCCCCCCCCCCC2)cc1` (stereo not shown) [MDL12330A], the “effect on GCGb-stimulated SL mRNA expression” value in experiment [2] (setting [9]) is “blocked”. Besides, in experiment [2] (24 h), the “effect on basal SL gene expression” value is given as “blocked the basal levels”. Besides, the “effect on GCGb-stimulated SL release” value in experiment [1] (setting [9]) is listed as “blocked”. The “effect on basal SL release” value in experiment [1] (10 µM test substance, 24 h) was “blocked the basal levels”.
With `COc1ccc2c(c1)CC[C@@H]1[C@@H]2CC[C@]2(C)[C@@H](NCCCCCCN3C(=O)C=CC3=O)CC[C@@H]12` [U73122], in experiment [2] (setting [9]), the “effect on GCGb-stimulated SL mRNA expression” value is “blocked the GCGb-stimulated SL release and mRNA expression”. Besides, the “effect on GCGb-stimulated SL release” value in experiment [1] (setting [9]) was “blocked the GCGb-stimulated SL release and mRNA expression”.
`Clc1ccc(C(c2ccc(Cl)cc2)n2cc[n+](CC(OCc3ccc(Cl)cc3Cl)c3ccc(Cl)cc3Cl)c2)cc1` (stereo not shown) [calmidazolium]: the “effect on GCGb-stimulated SL mRNA expression” value in experiment [2] (setting [11]) is “abolished”. In experiment [1] (setting [11]), the “effect on GCGb-stimulated SL release” value is given as “abolished”.
As for `COc1c(C[C@@H](C)OC(=O)Oc2ccc(O)cc2)c2c3c(C[C@@H](C)OC(=O)c4ccccc4)c(OC)c(=O)c4c(O)cc(OC)c(c5c(OC)cc(O)c(c1=O)c52)c43` [calphostin C], the “effect on GCGb-stimulated SL release” value in experiment [1] (20 nM test substance with GCGb 10 nM, 24 h) was “neither compound was able to block GCGb stimulated SL release”.
`C=C[C@@]1(C)CC(=O)[C@]2(O)[C@@]3(C)[C@@H](O)CCC(C)(C)[C@@H]3[C@H](O)[C@H](OC(C)=O)[C@@]2(C)O1` [forskolin]: the “SL release, dose dependence” value in experiment [1] (0.1–100 nM, 24 h) is listed as “dose-dependently stimulated SL release”.
With `Cc1cc(C)c(S(=O)(=O)Nc2cccc(C(F)(F)F)c2)c(C)c1` [m-3M3FBS], the “SL release, dose dependence” value in experiment [1] (0.01–10 µM) is reported as “dose-dependently stimulated SL release”.
Consider `COC(=O)C1=C(C)NC(C)=C(C(=O)OC)C1c1ccccc1[N+](=O)[O-]` [nifedipine], for which the “effect on GCGb-stimulated SL mRNA expression” value in experiment [2] (setting [12]) was “effective in blocking the stimulatory effect of GCGb on SL release and mRNA expression”. Also, the “effect on GCGb-stimulated SL release” value in experiment [1] (setting [12]) is “effective in blocking the stimulatory effect of GCGb on SL release and mRNA expression”.
Turning to `C/C=C(/C)C(=O)O[C@H]1C(C)=C2[C@H]([C@@H]1OC(=O)CCCCCCC)[C@@](C)(OC(C)=O)C[C@H](OC(=O)CCC)[C@@]1(O)[C@H]2OC(=O)[C@@]1(C)O` [thapsigargin], the “effect on GCGb-stimulated SL mRNA expression” value in experiment [2] (setting [13]) was “effective in blocking the stimulatory effect of GCGb on SL release and mRNA expression”. Also, in experiment [1] (setting [13]), the “effect on GCGb-stimulated SL release” value is “effective in blocking the stimulatory effect of GCGb on SL release and mRNA expression”.
In the case of `C1CCC[C@H]2CCCN3CC[C@@H](CCCCCC[C@@H]4CCCN5CC[C@@H](CC1)O[C@@H]45)O[C@@H]23` [xestospongin C], the “effect on GCGb-stimulated SL mRNA expression” value in experiment [2] (setting [10]) was “suppressed”. In experiment [2] (5 µM test substance, 24 h), the “effect on basal SL mRNA levels” value is “suppressed”. Besides, in experiment [1] (setting [10]), the “effect on GCGb-stimulated SL release” value is given as “suppressed”. Also, the “effect on basal SL release” value in experiment [1] (5 µM test substance, 24 h) is “suppressed”.
With “GCG: Glucagon, a 29 amino acid peptide hormone derived from proglucagon (cited work, species not stated)”, the “Ca^2+ release” value in experiment [3] was “can mediate Ca^2+ release from both intracellular Ca^2+ store and extracellular Ca^2+ influx”. Also, the “production of IP3” value in experiment [4] is “induce the production of IP3”.
Turning to “des-His1-[Nle9-Ala11-Ala16] GCG antagonist”, the “effect on GCGb-stimulated SL release” value in experiment [1] (setting [11]) is on record as “stimulatory effect could be blocked”. For the same molecule, the “block of the action of fish glucagon” value in experiment [5] is “could block the action of fish glucagon”.
Usually EC50 stands for the concentration giving half of the maximal effect. As for “human GCG: human glucagon, synthesized by GL Biochem”, in experiment [6] (fold less potent than tilapia GCGa), the “potency at tilapia GCGRa relative to tilapia GCGa (fold less potent)” value is listed as 80 fold. In addition, the EC50 in experiment [6] (tilapia GCGRa, HEK293, CRE-luciferase (cAMP), 24 h treatment, 37°C, Luc ratio to Renilla, N = 3) is 240 nM; in experiment [7] it was 6.37 nM.
On to mouse GCG: mouse glucagon (cited work), for which the “activation of zebrafish GCGRb” value in experiment [8] is reported as “potently activated”.
